According to patent publication US20180362543A1, “HIV REPLICATION INHIBITOR” (Shionogi & Co., Ltd., priority 2013, published 2018):
pEC50: −log10 of the molar value.

System: HIV (HTLV-III B strain)
Assay: HIV replication inhibition assay (MTT, MT-4 cells)
Format: cell-based
Experimental: HIV (HTLV-III B strain) persistent infected human T cell strain Molt-4 clone 8 was cultured in 10% Fetal Bovine Serum-containing RPMI-1640 medium and the supernatant was filtrated, then the virus titer was measured and the solution was stored at −80° C. Each anti-human immunodeficiency virus active substance was diluted with the above cultured medium to the designated concentration, which was dispensed into 96 well micro plate by 50 μL. Next, a MT-4 cell suspended liquid was dispensed by 100 μL (2.5×10^4 cells), then the above HIV-containing supernatant diluted with the above cultured medium was added thereto by 50 μL (60 pfu (plaque forming unit)).
The obtained mixture was cultured at 37° C. in CO2 incubator for four days, then 3-(4,5-dimehylthiazole-2-yl)-2,5-diphenyltetrazolynium bromide (MTT) 5 mg/mL in PBS was added to each well by 30 μL, followed by 1 hr-cultivation. In this step, as formazan was precipitated by reduction of MTT in living cells, the cell supernatant was removed from all well by 150 μL, then a 150 μL of solution (10% Triton X-100 and […]) was added thereto, followed by shaking with a plate mixer, to elute formazan. The formazan was measured with a microreader at OD: 560 nm and 690 nm (wavelength) and the result was compared with the reference. EC50 means the compound concentration at which cell cytotoxicity by virus is inhibited 50%.

[1] = Human immunodeficiency virus 1, MT4, 96 h, Table A-7, four days
[2] = Human immunodeficiency virus 1, MT4, 96 h, Table A-2, four days
[3] = Human immunodeficiency virus 1, MT4, 96 h, Table A-4, four days
[4] = Human immunodeficiency virus 1, MT4, 96 h, 4 days culture, concentration at which cell cytotoxicity by virus is inhibited 50%
[5] = Human immunodeficiency virus 1, MT4, 96 h, Table A-8 (continuation of Tables A-1 to A-9), four days
[6] = Human immunodeficiency virus 1, MT4, 96 h, Table A-3, four days
[7] = Human immunodeficiency virus 1, MT4, 96 h, Table A-9, four days
[8] = Human immunodeficiency virus 1, MT4, 96 h, Table A-5, four days

Cc1ccc(-c2c(C)c3c(c(C)c2[C@H](OC(C)(C)C)C(=O)O)N(S(C)(=O)=O)CC2CCCCN32)cc1 (some centres unmarked) [Compound 288]
pEC50 (Table A-5, four days): 7.43

Cc1cccc2c1CN(S(C)(=O)=O)c1c(C)c([C@H](OC(C)(C)C)C(=O)O)c(-c3ccc4c(c3C)NCCO4)c(C)c1-2 [Compound 346]
pEC50 [1]: 8.32

Cc1c(-c2ccc3c(c2)NCCC3)c([C@H](OC(C)(C)C)C(=O)O)c(C)c2c1-c1c(F)cccc1CN2S(C)(=O)=O [Compound 340]
pEC50 [1]: 8.37

Cc1ccc(-c2c(C)c3c(c(C)c2[C@H](OC(C)(C)C)C(=O)O)N(S(C)(=O)=O)Cc2cc(N)ncc2-3)c(C)c1 [Compound 330]
pEC50 [1]: 7.28

Cc1ccc(-c2c([C@H](OC(C)(C)C)C(=O)O)c(C)c3nc(O)c4cc5ccsc5nc4c3c2C)cc1 [Compound 101]
pEC50 [2]: 7.77

Cc1c(-c2c(C)c3c(c(C)c2[C@H](OC(C)(C)C)C(=O)O)N(S(C)(=O)=O)Cc2cccc(F)c2-3)ccc2c1CCCO2 [Compound 224]
pEC50 [3]: 8.60

Cc1c(-c2c(C)c3c(c(C)c2[C@H](OC(C)(C)C)C(=O)O)N(S(C)(=O)=O)Cc2cc(F)cnc2-3)ccc2c1NCCO2 [Compound 310]
pEC50 [4]: 7.60

COc1ccnc2c1CN(S(C)(=O)=O)c1c(C)c([C@H](OC(C)(C)C)C(=O)O)c(-c3ccc(C)cc3)c(C)c1-2 [Compound 374]
pEC50 [5]: 7.20

Cc1ccc(-c2c(C)c3c(c(C)c2[C@H](OC(C)(C)C)C(=O)O)NS(=O)(=O)Cc2cccc(F)c2-3)cc1 [Compound 156]
pEC50 [6]: 7.64

Cc1cnc2c(c1)CN(S(C)(=O)=O)c1c(C)c([C@H](OC(C)(C)C)C(=O)O)c(C3=CCC(C)(C)CC3)c(C)c1-2 [Compound 404]
pEC50 [7]: > 8.11

Cc1ccc(-c2c(C)c3c(c(C)c2[C@H](OC(C)(C)C)C(=O)O)N(S(C)(=O)=O)Cc2nc(C)ccc2-3)cc1 [Compound 248]
pEC50 [8]: 7.96

Cc1c(-c2c([C@H](OC(C)(C)C)C(=O)O)c(C)c3nc(O)c4cc(F)cnc4c3c2C)ccc2c1CCCO2 [Compound 218]
pEC50 [3]: 8.19

Cc1c(-c2ccc(Cl)cc2)c([C@H](OC2(C)CCC2)C(=O)O)c(C)c2c1-c1c(F)cccc1CN2S(C)(=O)=O [Compound 378]
pEC50 [5]: 7.44

COc1ccc(-c2c(C)c3c(c(C)c2[C@H](OC(C)(C)C)C(=O)O)N(S(C)(=O)=O)Cc2c(F)ccc(F)c2-3)c(C)n1 [Compound 329]
pEC50 [1]: 7.41

COc1ccc2c(O)nc3c(C)c([C@H](OC(C)(C)C)C(=O)O)c(-c4ccc(C)cc4)c(C)c3c2c1 [Compound 226]
pEC50 [3]: 7.24

Cc1cccc2c1-c1c(C)c(-c3ccc4c(c3C)NCCO4)c([C@H](OC(C)(C)C)C(=O)O)c(C)c1N(S(C)(=O)=O)C2 [Compound 347]
pEC50 [1]: 7.66

Cc1c(-c2ccccc2)c([C@H](OC(C)(C)C)C(=O)O)c(C)c2c1-c1ncc(F)cc1CN2S(C)(=O)=O [Compound 326]
pEC50 (Table A-7, four days): 7.27

Cc1ccc(-c2c(C)c3c(c(C)c2[C@H](OC(C)(C)C)C(=O)O)N(S(C)(=O)=O)Cc2cc(C)cnc2-3)cc1 [Compound 315]
pEC50 [4]: > 8.11

Cc1ccc(-c2c(C)c3c(c(C)c2[C@H](OC(C)(C)C)C(=O)O)N(S(C)(=O)=O)Cc2cc(F)cc(F)c2-3)cc1 [Compound 212]
pEC50 [3]: 8.72

Cc1c(-c2ccc3c(c2)CCCO3)c([C@H](OC(C)(C)C)C(=O)O)c(C)c2c1-c1c(F)cccc1CN2S(C)(=O)=O [Compound 266]
pEC50 [8]: 8.10

Cc1c(-c2c(C)c3c(c(C)c2[C@H](OC(C)(C)C)C(=O)O)N(C(N)=O)Cc2c(F)ccc(F)c2-3)ccc2c1NCCO2 [Compound 358]
pEC50 [1]: 7.04

Cc1ccc(-c2c(C)c3c(c(C)c2[C@H](OC(C)(C)C)C(=O)O)NC(=O)C2(CCC2)N3)cc1 [Compound 111]
pEC50 [2]: 8.11

Cc1ccc(-c2c(C)c3c(c(C)c2[C@H](OC(C)(C)C)C(=O)O)NS(=O)(=O)N(CC2CCCCC2)CC3)cc1 [Compound 130]
pEC50 [2]: 7.92

COc1ccc2c(c1)CN(S(C)(=O)=O)c1c(C)c([C@H](OC(C)(C)C)C(=O)O)c(-c3ccc(C)cc3)c(C)c1-2 [Compound 122]
pEC50 [2]: 8.42

Cc1ccc(-c2c(C)c3c(c(C)c2[C@H](OC(C)(C)C)C(=O)O)NC(=O)c2ccc(C)nc2O3)cc1 [Compound 48]
pEC50 [4]: 7.54

Cc1c(-c2ccc3c(c2)C(F)(F)CCO3)c([C@H](OC(C)(C)C)C(=O)O)c(C)c2c1-c1c(F)cccc1CN2S(C)(=O)=O [Compound 259]
pEC50 [8]: 7.57

Cc1ccc(-c2c([C@H](OC(C)(C)C)C(=O)O)c(C)c3nc(O)c4cc(C)ccc4c3c2C)cc1 [Compound 96]
pEC50 [2]: 7.49

Cc1c(-c2ccc3c4c(ccnc24)CCO3)c([C@H](OC(C)(C)C)C(=O)O)c(C)c2c1-c1c(F)cccc1CN2S(C)(=O)=O [Compound 262]
pEC50 [8]: 7.60

Cc1ccc(-c2c(C)c3c(c(C)c2[C@H](OC(C)(C)C)C(=O)O)NS(=O)(=O)N(C2CCCCC2)CC3)cc1 [Compound 127]
pEC50 [2]: 7.96

Cc1ccc(-c2c(C)c3c(c(C)c2[C@H](OC(C)(C)C)C(=O)O)N(S(C)(=O)=O)Cc2cccc(C(F)(F)F)c2-3)cc1 [Compound 169]
pEC50 [6]: 8.02

Cc1ccc(-c2c(C)c3c(c(C)c2[C@H](OC(C)(C)C)C(=O)O)S(=O)(=O)Cc2cc(F)cc(F)c2-3)cc1 [Compound 298]
pEC50 [4]: 7.52

Cc1ccc(-c2c(C)c3c(c(C)c2[C@H](OC(C)(C)C)C(=O)O)N(S(C)(=O)=O)Cc2nc(C)cc(C)c2-3)cc1 [Compound 388]
pEC50 [5]: 7.54

Cc1c(-c2ccc(F)cc2)c([C@H](OC(C)(C)C)C(=O)O)c(C)c2c1-c1c(F)cccc1CN2S(C)(=O)=O [Compound 264]
pEC50 [8]: 7.72

Cc1ccc(-c2c(C)c3c(c(C)c2[C@H](OC(C)(C)C)C(=O)O)N(S(C)(=O)=O)Cc2cc(C#N)ccc2-3)cc1 [Compound 279]
pEC50 [8]: 7.96

Cc1ccc(-c2c(C)c3c(c(C)c2[C@H](OC(C)(C)C)C(=O)O)N(S(C)(=O)=O)Cc2cccc(F)c2-3)c(CO)c1 [Compound 394]
pEC50 [5]: 7.57

Cc1ccc(-c2c(C)c3c(c(C)c2[C@H](OC(C)(C)C)C(=O)O)N(S(C)(=O)=O)Cc2cc(C)cnc2-3)c(C)c1 [Compound 384]
pEC50 [5]: 8.08

Cc1ccc(-c2c(C)c3c(c(C)c2[C@H](OC2(C)CCC2)C(=O)O)N(S(C)(=O)=O)Cc2cccc(F)c2-3)cc1 [Compound 375]
pEC50 [5]: 7.72

Cc1c(-c2c(C)c3c(c(C)c2[C@H](OC(C)(C)C)C(=O)O)N(S(C)(=O)=O)Cc2cccc(F)c2-3)ccc2c1OCCO2 [Compound 360]
pEC50 [1]: 8.36

Cc1ccc2c(c1)CN(S(C)(=O)=O)c1c(C)c([C@H](OC(C)(C)C)C(=O)O)c(-c3ccc4c(c3C)NCCO4)c(C)c1-2 [Compound 348]
pEC50 [1]: 8.70

Cc1ccc(-c2c(C)c3c(c(C)c2[C@H](OC(C)(C)C)C(=O)O)N(S(C)(=O)=O)[C@@H](C)c2ccccc2-3)cc1 [Compound 287]
pEC50 [8]: 7.48

Cc1c(-c2ccc3c(c2)OCCO3)c([C@H](OC(C)(C)C)C(=O)O)c(C)c2c1-c1c(F)cccc1CN2S(C)(=O)=O [Compound 336]
pEC50 [1]: 7.66

Cc1ccc2c(c1)-c1c(C)c(-c3ccc4c(c3C)NCCO4)c([C@H](OC(C)(C)C)C(=O)O)c(C)c1N(S(C)(=O)=O)C2 [Compound 345]
pEC50 [1]: 8.17

Cc1c(C(OC(C)(C)C)C(=O)O)c(-c2ccc3c(c2)CCCO3)c(C)c2c1[nH]c(=O)n2Cc1ccccc1 (centres unmarked) [Compound 3]
pEC50 (4 days culture, concentration at which cell cytotoxicity by virus is inhibited 50%): 7.19

Cc1cnc2c(c1)CN(S(C)(=O)=O)c1c(C)c([C@H](OC(C)(C)C)C(=O)O)c(-c3ccc(Cl)cc3O)c(C)c1-2 [Compound 406]
pEC50 [7]: 7.42

Cc1ccc(-c2c(C)c3c(c(C)c2[C@H](OC(C)(C)C)C(=O)O)NS(=O)(=O)Cc2c(F)cccc2-3)cc1 [Compound 124]
pEC50 (Table A-2, four days): 8.09

Cc1ccc(-c2c(C)c3c(c(C)c2[C@H](OC(C)(C)C)C(=O)O)N(S(C)(=O)=O)Cc2ccc(F)c(F)c2-3)cc1 [Compound 220]
pEC50 [3]: 8.14

Cc1ccc(-c2c(C)c3c(c(C)c2[C@H](OC(C)(C)C)C(=O)O)NS(=O)(=O)Cc2ccc(F)cc2-3)cc1 [Compound 95]
pEC50 [2]: 8.01

COc1nc2c(cc1F)CN(S(C)(=O)=O)c1c(C)c([C@H](OC(C)(C)C)C(=O)O)c(-c3ccc(C)cc3)c(C)c1-2 [Compound 389]
pEC50 [5]: 7.17

Cc1ccc(-c2c(C)c3c(c(C)c2[C@H](OC(C)(C)C)C(=O)O)NC(=O)C2(CCCCCC2)N3)cc1 [Compound 140]
pEC50 [6]: 8.51

Cc1c(-c2ccc3c(c2)NCC3)c([C@H](OC(C)(C)C)C(=O)O)c(C)c2c1-c1c(F)cccc1CN2S(C)(=O)=O [Compound 363]
pEC50 [5]: 7.85

COc1cnc2c(c1)CN(S(C)(=O)=O)c1c(C)c([C@H](OC(C)(C)C)C(=O)O)c(-c3ccc(C)cc3)c(C)c1-2 [Compound 368]
pEC50 [5]: 8.41

COc1ccc2c(c1)c(O)nc1c(C)c([C@H](OC(C)(C)C)C(=O)O)c(-c3ccc(C)cc3)c(C)c12 [Compound 223]
pEC50 [3]: 7.47

COc1cc2c(cn1)-c1c(C)c(-c3ccc(Cl)cc3)c([C@H](OC(C)(C)C)C(=O)O)c(C)c1N(S(C)(=O)=O)C2 [Compound 379]
pEC50 [5]: 8.64
